Data: PubChem BioAssay (NCI)
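Assay format: 96-well plates, 48-hour exposure. TGI: concentration producing complete growth inhibition.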

Assays:
Experiment in all cases: DTP human tumour cell line panel, 48 h
SF-268 CNS = system: SF-268 CNS
MALME-3M melanoma = system: MALME-3M melanoma
K-562 leukemia = system: K-562 leukemia
M14 melanoma = system: M14 melanoma
SK-MEL-5 melanoma = system: SK-MEL-5 melanoma
HOP-92 NSCLC = system: HOP-92 NSCLC
SK-OV-3 ovarian = system: SK-OV-3 ovarian
EKVX NSCLC = system: EKVX NSCLC
ACHN renal = system: ACHN renal
CCRF-CEM leukemia = system: CCRF-CEM leukemia
TK-10 renal = system: TK-10 renal
SN12C renal = system: SN12C renal
NCI-H23 lung = system: NCI-H23 lung
786-0 renal = system: 786-0 renal
HCT-15 colon = system: HCT-15 colon
HS 578T breast = system: HS 578T breast
MDA-N = system: MDA-N
UACC-62 melanoma = system: UACC-62 melanoma
MCF7 breast = system: MCF7 breast
SK-MEL-28 melanoma = system: SK-MEL-28 melanoma
SNB-19 CNS = system: SNB-19 CNS
OVCAR-3 ovarian = system: OVCAR-3 ovarian
RXF 393 renal = system: RXF 393 renal
DU-145 prostate = system: DU-145 prostate
A498 renal = system: A498 renal
CAKI-1 renal = system: CAKI-1 renal
OVCAR-4 ovarian = system: OVCAR-4 ovarian
NCI-H226 lung = system: NCI-H226 lung
MDA-MB-435 = system: MDA-MB-435
KM12 colon = system: KM12 colon
HT29 colon = system: HT29 colon
SK-MEL-2 melanoma = system: SK-MEL-2 melanoma
LOX IMVI melanoma = system: LOX IMVI melanoma
NCI-H522 lung = system: NCI-H522 lung
T-47D breast = system: T-47D breast
NCI/ADR-RES ovarian = system: NCI/ADR-RES ovarian
SF-295 CNS = system: SF-295 CNS
MDA-MB-231 breast = system: MDA-MB-231 breast
IGROV1 ovarian = system: IGROV1 ovarian
UACC-257 melanoma = system: UACC-257 melanoma
HCT-116 colon = system: HCT-116 colon
PC-3 prostate = system: PC-3 prostate
SNB-75 CNS = system: SNB-75 CNS
HOP-62 NSCLC = system: HOP-62 NSCLC
COLO 205 colon = system: COLO 205 colon
MOLT-4 leukemia = system: MOLT-4 leukemia
U251 CNS = system: U251 CNS
SW-620 colon = system: SW-620 colon
HCC-2998 colon = system: HCC-2998 colon
OVCAR-8 ovarian = system: OVCAR-8 ovarian
SF-539 CNS = system: SF-539 CNS
A549 NSCLC = system: A549 NSCLC
UO-31 renal = system: UO-31 renal
NCI-H460 lung = system: NCI-H460 lung
BT-549 breast = system: BT-549 breast
OVCAR-5 ovarian = system: OVCAR-5 ovarian
SR leukemia = system: SR leukemia
RPMI-8226 leukemia = system: RPMI-8226 leukemia
HL-60(TB) leukemia = system: HL-60(TB) leukemia

Cc1[nH]c(=O)nc2nc3cc(Cl)cc(Cl)c3c(NC(C)(CO)CO)c12
TGI (SF-268 CNS): > 100 µM | TGI (MALME-3M melanoma): > 100 µM | TGI (K-562 leukemia): > 100 µM | TGI (M14 melanoma): > 100 µM | TGI (SK-MEL-5 melanoma): > 100 µM | TGI (HOP-92 NSCLC): 57.7 µM | TGI (SK-OV-3 ovarian): > 100 µM | TGI (EKVX NSCLC): > 100 µM | TGI (ACHN renal): > 100 µM | TGI (CCRF-CEM leukemia): > 100 µM | TGI (TK-10 renal): 84.1 µM | TGI (SN12C renal): > 100 µM | TGI (NCI-H23 lung): > 100 µM | TGI (786-0 renal): 91.6 µM | TGI (HCT-15 colon): > 100 µM | TGI (HS 578T breast): > 100 µM | TGI (MDA-N): > 100 µM | TGI (UACC-62 melanoma): > 100 µM | TGI (MCF7 breast): > 100 µM | TGI (SK-MEL-28 melanoma): > 100 µM | TGI (SNB-19 CNS): > 100 µM | TGI (OVCAR-3 ovarian): > 100 µM | TGI (RXF 393 renal): > 100 µM | TGI (DU-145 prostate): > 100 µM | TGI (A498 renal): 99.4 µM | TGI (CAKI-1 renal): > 100 µM | TGI (OVCAR-4 ovarian): > 100 µM | TGI (NCI-H226 lung): > 100 µM | TGI (MDA-MB-435): > 100 µM | TGI (KM12 colon): > 100 µM | TGI (HT29 colon): > 100 µM | TGI (SK-MEL-2 melanoma): > 100 µM | TGI (LOX IMVI melanoma): > 100 µM | TGI (NCI-H522 lung): > 100 µM | TGI (T-47D breast): > 100 µM | TGI (NCI/ADR-RES ovarian): > 100 µM | TGI (SF-295 CNS): > 100 µM | TGI (MDA-MB-231 breast): 36.9 µM | TGI (IGROV1 ovarian): > 100 µM | TGI (UACC-257 melanoma): > 100 µM | TGI (HCT-116 colon): > 100 µM | TGI (PC-3 prostate): > 100 µM | TGI (SNB-75 CNS): 38.6 µM | TGI (HOP-62 NSCLC): 83.7 µM | TGI (COLO 205 colon): > 100 µM | TGI (MOLT-4 leukemia): > 100 µM | TGI (U251 CNS): 28.8 µM | TGI (SW-620 colon): > 100 µM | TGI (HCC-2998 colon): > 100 µM | TGI (OVCAR-8 ovarian): > 100 µM | TGI (SF-539 CNS): > 100 µM | TGI (A549 NSCLC): > 100 µM | TGI (UO-31 renal): > 100 µM | TGI (NCI-H460 lung): > 100 µM | TGI (BT-549 breast): > 100 µM

CSc1ncnc2c1ncn2CCC(=O)O
TGI (SF-268 CNS): > 100 µM | TGI (MALME-3M melanoma): > 100 µM | TGI (K-562 leukemia): > 100 µM | TGI (M14 melanoma): > 100 µM | TGI (SK-MEL-5 melanoma): > 100 µM | TGI (HOP-92 NSCLC): > 100 µM | TGI (SK-OV-3 ovarian): > 100 µM | TGI (EKVX NSCLC): > 100 µM | TGI (ACHN renal): > 100 µM | TGI (CCRF-CEM leukemia): > 100 µM | TGI (TK-10 renal): > 100 µM | TGI (SN12C renal): > 100 µM | TGI (NCI-H23 lung): > 100 µM | TGI (786-0 renal): > 100 µM | TGI (MDA-N): > 100 µM | TGI (UACC-62 melanoma): > 100 µM | TGI (MCF7 breast): > 100 µM | TGI (SK-MEL-28 melanoma): > 100 µM | TGI (SNB-19 CNS): > 100 µM | TGI (OVCAR-3 ovarian): > 100 µM | TGI (RXF 393 renal): > 100 µM | TGI (DU-145 prostate): > 100 µM | TGI (A498 renal): > 100 µM | TGI (CAKI-1 renal): > 100 µM | TGI (OVCAR-4 ovarian): > 100 µM | TGI (NCI-H226 lung): > 100 µM | TGI (MDA-MB-435): > 100 µM | TGI (KM12 colon): > 100 µM | TGI (HT29 colon): > 100 µM | TGI (LOX IMVI melanoma): > 100 µM | TGI (OVCAR-5 ovarian): > 100 µM | TGI (NCI-H522 lung): > 100 µM | TGI (NCI/ADR-RES ovarian): > 100 µM | TGI (SF-295 CNS): > 100 µM | TGI (MDA-MB-231 breast): > 100 µM | TGI (SR leukemia): > 100 µM | TGI (IGROV1 ovarian): > 100 µM | TGI (UACC-257 melanoma): > 100 µM | TGI (HCT-116 colon): > 100 µM | TGI (PC-3 prostate): > 100 µM | TGI (SNB-75 CNS): > 100 µM | TGI (RPMI-8226 leukemia): > 100 µM | TGI (HOP-62 NSCLC): > 100 µM | TGI (COLO 205 colon): > 100 µM | TGI (HL-60(TB) leukemia): > 100 µM | TGI (MOLT-4 leukemia): > 100 µM | TGI (SW-620 colon): > 100 µM | TGI (OVCAR-8 ovarian): > 100 µM | TGI (SF-539 CNS): > 100 µM | TGI (A549 NSCLC): > 100 µM | TGI (UO-31 renal): > 100 µM | TGI (NCI-H460 lung): > 100 µM
